# Experiments:
# [1] = biological target: T1, human IDO (IDO1-expressing HEK293 cells) (Homo sapiens, UniProt P14902); experiment: Cell based kynurenine assay, IDO1-expressing HEK293 cell clones; details: IDO1-expressing HEK293 cells, 24 hours incubation; geometric mean; read-out: HEK293 IDO1 Kynurenine GMean IC50 (μM) (Cellular Assay)
# T1 construct: expressed in transfected cells
# In short: (§1)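 HEK293 clones stably expressing human IDO1 or human TDO (CMV promoter), 2.5×10^4 cells/well, given serial compound dilutions for 24 h. Kynurenine measured in supernatant; inhibition relative to cell/0.2% DMSO and media-only controls. IC50 by nonlinear regression.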
# [2] = biological target: T2, Human Tryptophan 2,3-dioxygenase (TDO) (Homo sapiens, UniProt P48775); experiment: Human TDO enzymatic assay (kynurenine level); format: biochemical; details: 1 nM TDO, 350 μM L-Trp; geometric mean; read-out: TDO GMean: IC50 (μM) (Biochemical Assay)
# T2 construct: His tag (N); made in house; host or cells: E. coli
# In short: (§2)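 N-His human IDO (6 nM, 10 μM L-Trp, 5 μM methylene blue, 20 min) or TDO (1 nM, 350 μM L-Trp, 0.4 μM methylene blue, 70 min) run at room temp in pH 6.5 phosphate with ascorbate, catalase, Tween 20. TCA stop, 30 min 50 °C converts N-formylkynurenine to kynurenine; IC50 by nonlinear regression.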
# [3] = biological target: T3, Human Indoleamine 2,3-dioxygenase (IDO) (Homo sapiens, UniProt P14902); experiment: Human IDO enzymatic assay (kynurenine level); format: biochemical; details: 6 nM IDO, 10 μM L-Trp; geometric mean; read-out: IDO1 GMean: IC50 (μM) (Biochemical Assay)
# T3 construct: His tag (N); made in house; host or cells: E. coli
# In short: as §2
# [4] = biological target: T4, human TDO (TDO-expressing HEK293 cells) (Homo sapiens, UniProt P48775); experiment: Cell based kynurenine assay, TDO-expressing HEK293 cell clones; details: TDO-expressing HEK293 cells, 24 hours incubation; geometric mean; read-out: HEK293 TDO Kynurenine GMean IC50 (μM) (Cellular Assay)
# T4 construct: expressed in transfected cells
# In short: as §1
# T2 sequence (P48775 whole entry): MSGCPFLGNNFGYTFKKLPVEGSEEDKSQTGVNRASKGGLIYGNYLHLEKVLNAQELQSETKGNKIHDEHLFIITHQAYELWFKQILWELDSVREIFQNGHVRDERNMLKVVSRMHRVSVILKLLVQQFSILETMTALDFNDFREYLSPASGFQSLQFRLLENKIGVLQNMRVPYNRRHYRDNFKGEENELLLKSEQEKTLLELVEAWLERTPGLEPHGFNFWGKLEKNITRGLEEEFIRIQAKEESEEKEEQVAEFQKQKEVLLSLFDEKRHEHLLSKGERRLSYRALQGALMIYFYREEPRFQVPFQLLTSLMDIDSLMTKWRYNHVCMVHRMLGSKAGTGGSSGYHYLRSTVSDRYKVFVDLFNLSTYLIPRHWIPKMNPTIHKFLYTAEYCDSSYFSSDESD
# T4 sequence (P48775 whole entry): as above
# T1 sequence (P14902 whole entry): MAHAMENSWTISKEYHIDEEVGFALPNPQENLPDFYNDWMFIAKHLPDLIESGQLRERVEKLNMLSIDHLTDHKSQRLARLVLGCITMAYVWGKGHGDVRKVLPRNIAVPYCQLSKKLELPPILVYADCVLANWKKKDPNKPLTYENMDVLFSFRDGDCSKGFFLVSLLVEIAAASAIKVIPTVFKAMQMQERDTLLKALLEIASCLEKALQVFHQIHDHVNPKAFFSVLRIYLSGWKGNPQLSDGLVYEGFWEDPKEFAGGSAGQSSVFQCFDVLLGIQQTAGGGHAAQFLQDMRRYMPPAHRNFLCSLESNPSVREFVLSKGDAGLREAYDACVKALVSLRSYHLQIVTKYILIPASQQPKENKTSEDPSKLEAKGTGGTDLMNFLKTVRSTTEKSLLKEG
# T3 sequence (P14902 whole entry): as above
IC50 [1] [µM],IC50 [2] [µM],IC50 [3] [µM],IC50 [4] [µM],SMILES
0.0001 to 10,0.0001 to 10,0.0001 to 10,0.0001 to 10,"CC(C1CC1)(C1CC1)C(O)c1c(F)c(Cl)cc2cn[nH]c12 (stereo not drawn) [Compound P-0260, 1-(5-chloro-6-fluoro-1H-indazol-7-yl)-2,2-dicyclopropylpropan-1-ol]"
0.0001 to 10,0.0001 to 10,0.0001 to 10,0.0001 to 10,"CC(C)(C1CCN(S(C)(=O)=O)CC1)C(O)c1c(F)c(Cl)cc2cn[nH]c12 (stereo not drawn) [Compound P-0261, 1-(5-chloro-6-fluoro-1H-indazol-7-yl)-2-methyl-2-(1-(methylsulfonyl)piperidin-4-yl)propan-1-ol]"
0.0001 to 10,0.0001 to 10,0.0001 to 10,0.0001 to 10,"OC(c1c(F)c(Cl)cc2cn[nH]c12)C(F)(F)C1CCOCC1 (stereo not drawn) [Compound P-0262, 1-(5-chloro-6-fluoro-1H-indazol-7-yl)-2,2-difluoro-2-(tetrahydro-2H-pyran-4-yl)ethan-1-ol]"
0.0001 to 10,0.0001 to 10,0.0001 to 10,0.0001 to 10,"CC1(C(O)c2cc(Br)cc3cn[nH]c23)CCCCC1 (stereo not drawn) [Compound P-0263, (5-bromo-1H-indazol-7-yl)(1-methylcyclohexyl)methanol]"
0.0001 to 10,0.0001 to 10,0.0001 to 10,> 10,"CC1(C(O)c2c(F)c(Cl)c(F)c3cn[nH]c23)CCC1 (stereo not drawn) [Compound P-0264, (5-chloro-4,6-difluoro-1H-indazol-7-yl)(1-methylcyclobutyl)methanol]"
0.0001 to 10,0.0001 to 10,0.0001 to 10,0.0001 to 10,"OC(c1c(F)c(Cl)c(F)c2cn[nH]c12)C1(C(F)(F)F)CCC1 (stereo not drawn) [Compound P-0265, (5-chloro-4,6-difluoro-1H-indazol-7-yl)(1-(trifluoromethyl)cyclobutyl)methanol]"
> 10,0.0001 to 10,0.0001 to 10,> 10,"O=S(=O)(c1ccccc1)C1(C(O)c2cc(Cl)cc3cn[nH]c23)CC1 (stereo not drawn) [Compound P-0266, (5-chloro-1H-indazol-7-yl)(1-(phenylsulfonyl)cyclopropyl)methanol]"
0.0001 to 10,0.0001 to 10,0.0001 to 10,0.0001 to 10,"CCC(CC)(CC)C(O)c1cc(Cl)cc2cn[nH]c12 (stereo not drawn) [Compound P-0267, 1-(5-chloro-1H-indazol-7-yl)-2,2-diethylbutan-1-ol]"
0.0001 to 10,0.0001 to 10,0.0001 to 10,0.0001 to 10,"CCC(CC)C(O)c1cc(Cl)cc2cn[nH]c12 (stereo not drawn) [Compound P-0268, 1-(5-chloro-1H-indazol-7-yl)-2-ethylbutan-1-ol]"
0.0001 to 10,0.0001 to 10,0.0001 to 10,0.0001 to 10,"OC(c1cc(Cl)cc2cn[nH]c12)C12CCC(C(F)F)(CC1)CC2 (stereo not drawn) [Compound P-0269, (5-chloro-1H-indazol-7-yl)(4-(difluoromethyl)bicyclo[2.2.2]octan-1-yl)methanol]"
0.0001 to 10,0.0001 to 10,0.0001 to 10,0.0001 to 10,"CS(=O)(=O)N1CCC(C(F)(F)C(O)c2cc(Cl)cc3cn[nH]c23)CC1 (stereo not drawn) [Compound P-0270, 1-(5-chloro-1H-indazol-7-yl)-2,2-difluoro-2-(1-(methylsulfonyl)piperidin-4-yl)ethan-1-ol]"
0.0001 to 10,0.0001 to 10,0.0001 to 10,0.0001 to 10,"CC(C)(C(O)c1cc(Cl)cc2cn[nH]c12)[C@H]1C[C@H]2CC[C@@H](C1)N2S(C)(=O)=O (stereo partly drawn) [Compound P-0271, 1-(5-chloro-1H-indazol-7-yl)-2-methyl-2-((1R,3r,5S)-8-(methylsulfonyl)-8-azabicyclo[3.2.1]octan-3-yl)propan-1-ol]"
0.0001 to 10,0.0001 to 10,0.0001 to 10,0.0001 to 10,"CC(C)(C(O)c1cc(Cl)cc2cn[nH]c12)[C@@H]1C[C@H]2CC[C@@H](C1)N2S(C)(=O)=O (stereo partly drawn) [Compound P-0272, 1-(5-chloro-1H-indazol-7-yl)-2-methyl-2-((1R,3s,5S)-8-(methylsulfonyl)-8-azabicyclo[3.2.1]octan-3-yl)propan-1-ol]"
0.0001 to 10,0.0001 to 10,0.0001 to 10,0.0001 to 10,"CC(C)(C)OC(=O)N1CC2CCC(C1)C2CC(O)c1cc(Cl)cc2cn[nH]c12 (stereo not drawn) [Compound P-0273, tert-butyl 8-(2-(5-chloro-1H-indazol-7-yl)-2-hydroxyethyl)-3-azabicyclo[3.2.1]octane-3-carboxylate]"

# The next lines start with the molecule.
SMILES,IC50 [1] [µM],IC50 [2] [µM],IC50 [3] [µM],IC50 [4] [µM]
"CC(C)(C(O)c1cc(Cl)cc2cn[nH]c12)C(F)(F)F (stereo not drawn) [Compound P-0250, 1-(5-chloro-1H-indazol-7-yl)-3,3,3-trifluoro-2,2-dimethylpropan-1-ol]",0.0001 to 10,0.0001 to 10,0.0001 to 10,0.0001 to 10
"CC(C)(C1CCC1)C(O)c1c(F)c(Cl)c(F)c2cn[nH]c12 (stereo not drawn) [Compound P-0251, 1-(5-chloro-4,6-difluoro-1H-indazol-7-yl)-2-cyclobutyl-2-methylpropan-1-ol]",0.0001 to 10,0.0001 to 10,0.0001 to 10,0.0001 to 10
"CC(C)(C1CCCC1)C(O)c1c(F)c(Cl)c(F)c2cn[nH]c12 (stereo not drawn) [Compound P-0252, 1-(5-chloro-4,6-difluoro-1H-indazol-7-yl)-2-cyclopentyl-2-methylpropan-1-ol]",0.0001 to 10,0.0001 to 10,0.0001 to 10,> 10
"CC(C)(C1CCCCC1)C(O)c1c(F)c(Cl)c(F)c2cn[nH]c12 (stereo not drawn) [Compound P-0253, 1-(5-chloro-4,6-difluoro-1H-indazol-7-yl)-2-cyclohexyl-2-methylpropan-1-ol]",0.0001 to 10,0.0001 to 10,0.0001 to 10,0.0001 to 10
"CC(C)(CC1CCOCC1)C(O)c1cc(Cl)cc2cn[nH]c12 (stereo not drawn) [Compound P-0254, 1-(5-chloro-1H-indazol-7-yl)-2,2-dimethyl-3-(tetrahydro-2H-pyran-4-yl)propan-1-ol]",0.0001 to 10,0.0001 to 10,0.0001 to 10,0.0001 to 10
"CCC(C)(CC)C(O)c1cc(Cl)cc2cn[nH]c12 (stereo not drawn) [Compound P-0255, 1-(5-chloro-1H-indazol-7-yl)-2-ethyl-2-methylbutan-1-ol]",0.0001 to 10,0.0001 to 10,0.0001 to 10,0.0001 to 10
"CCC(CC)(CCC#N)C(O)c1cc(Cl)cc2cn[nH]c12 (stereo not drawn) [Compound P-0256, 4-((5-chloro-1H-indazol-7-yl)(hydroxy)methyl)-4-ethylhexanenitrile]",0.0001 to 10,0.0001 to 10,0.0001 to 10,0.0001 to 10
"OC(c1c(F)c(Cl)cc2cn[nH]c12)C12CC3CC(CC(C3)C1)C2 [Compound P-0257, ((1S,3s)-adamantan-1-yl)(5-chloro-6-fluoro-1H-indazol-7-yl)methanol]",0.0001 to 10,0.0001 to 10,0.0001 to 10,0.0001 to 10
"OC(c1c(F)c(Cl)cc2cn[nH]c12)C1CC2CCC1C2 (stereo not drawn) [Compound P-0258, bicyclo[2.2.1]heptan-2-yl(5-chloro-6-fluoro-1H-indazol-7-yl)methanol]",0.0001 to 10,0.0001 to 10,0.0001 to 10,0.0001 to 10
"CC(C1CC1)(C1CC1)C(O)c1cc(Cl)cc2cn[nH]c12 (stereo not drawn) [Compound P-0259, 1-(5-chloro-1H-indazol-7-yl)-2,2-dicyclopropylpropan-1-ol]",0.0001 to 10,0.0001 to 10,0.0001 to 10,0.0001 to 10
